Results taken from US11279714B2, “Anti-infective compounds” (priority 2014, dated 2022).

Experiments:
Format in all cases: cell-based, Mycobacterium
Conditions in all cases: REMA, 1 week + 1 day resazurin; relative to H37Rv
[1] = system: MDR-33 (clinical isolate of multidrug-resistance tuberculosis)
[2] = system: MDR-137 (clinical isolate of multidrug-resistance tuberculosis)
[3] = system: MDR-146 (clinical isolate of multidrug-resistance tuberculosis)

SMILES	Antibacterial activity MDR-33 [1]	Antibacterial activity MDR-137 [2]	Antibacterial activity MDR-146 [3]
Cc1nc2cc(NC(=O)c3cc4sc(N5CCOCC5)nc4s3)ccc2o1 [Compound 83]	+++ (+++ indicates <2 times of MIC50 on wild type strain (H37Rv))	+++ (+++ indicates <2 times of MIC50 on wild type strain (H37Rv))	+++ (+++ indicates <2 times of MIC50 on wild type strain (H37Rv))
COc1ccc(NC(=O)c2cc3sc(N4CCC(C(=O)N(C)C)CC4)nc3s2)cc1 [Compound 127]	+++ (+++ indicates <2 times of MIC50 on wild type strain (H37Rv))	+++ (+++ indicates <2 times of MIC50 on wild type strain (H37Rv))	+++ (+++ indicates <2 times of MIC50 on wild type strain (H37Rv))
Cc1nc2cc(NC(=O)c3cc4sc(N5CCC(CO)CC5)nc4s3)ccc2o1 [Compound 144]	+++ (+++ indicates <2 times of MIC50 on wild type strain (H37Rv))	+++ (+++ indicates <2 times of MIC50 on wild type strain (H37Rv))	+++ (+++ indicates <2 times of MIC50 on wild type strain (H37Rv))
COCCN(C)c1nc2sc(C(=O)Nc3ccc4oc(C)nc4c3)cc2s1 [Compound 202]	+++ (+++ indicates <2 times of MIC50 on wild type strain (H37Rv))	+++ (+++ indicates <2 times of MIC50 on wild type strain (H37Rv))	+++ (+++ indicates <2 times of MIC50 on wild type strain (H37Rv))
